# Measurements: patent publication US12569510B2, “Antiviral prodrugs and pharmaceutical compositions thereof” (THE SCRIPPS RESEARCH INSTITUTE, priority 2019, dated 2026)
# Like-named read-outs stand apart in the source and are kept apart here.
# Legend:
# [1] = Stability of aqueous suspension, 2 weeks at 40° C./75% relative humidity (XPRD); format: physicochemical; conditions: aqueous 0.25% CMC-Na/0.5% TWEEN-80 suspension
# Description: LC-MS (ESI+): m/z 502.41 [M+H]^+. About 275 mg/g of Compound 6 was suspended in aqueous 0.25% CMC-Na/0.5% TWEEN-80 (26 gauge syringeability) and was subjected to stability for 2 weeks at 40° C./75% relative humidity.
# [2] = SC rat PK: EFdA plasma levels; conditions: for Cmax compared with EFdA / duration of plasma levels of EFdA above lower limit of quantitation (LLOQ): single SC dose, 10 mg/kg EFdA equivalent, 4 mg/mL; for half life and mean residence life compared with EFdA: SC, 100 mg/kg EFdA equivalent
# Description: (§1) • Animals: Animals (Male SD rats ˜200-250 g and Male rhesus macaques ˜2-3 kg) were obtained from an approved vendor (SLAC Laboratory Animal Co. Ltd., Shanghai, China and/or Topgene Biotechnology, Wuhan city, Hubei Province, China). • Acclimation/Quarantine: Following arrival, animals were assessed as to their general health by a member of the veterinary staff or other authorized personnel. Animals were acclimated for at least 3 days before being placed on study. • Animal Husbandry: Animals were group housed during acclimation and individually housed during the study. The animal room environment will be controlled (target conditions: temperature 18 to 26° C., relative humidity 30 to 70%, 12 hours artificial light and 12 hours dark). Temperature and relative humidity were monitored daily. • Animal Cannulation: No
# (§2) Animals were fasted at least 12 hours prior to the administration. All animals had access to Certified Rodent and non-Rodent Diet (Catalog #M01-F, SLAC Laboratory Animal Cl. Ltd., Shanghai, China) ad libitum 4 hours post dosing.
# Animals were dosed within four hours of suspension preparation. Two 20 μL aliquots of each prepared suspension were transferred into 1.5 mL of polypropylene microcentrifuge tubes and dose validation was run by LC/UV or LC-MS/MS.
# The suspensions were administered via subcutaneous injection (SC) following facility standard operations procedures (SOPs).
# Approximately 200 μL blood was collected from saphenous vein at each time point for rats and 0.5 mL for rhesus macaques. All blood samples were transferred into microcentrifuge tubes containing 4 μL of K2EDTA (0.5M) as anti-coagulant and placed on wet ice until processed for plasma.
# Blood: Blood samples were processed for plasma by centrifugation at approximately 4° C., 3000 g 15 min within half an hour of collection. Plasma samples was stored in polypropylene tubes, quick frozen over dry ice and kept at −70±10° C. until LC/MS/MS analysis.
# If the carryover couldn't meet the criteria, then the percent of carryover should be estimated following in-house bioanalytical SOP. 6. Data Analysis
# Plasma concentration versus time data was analyzed by non-compartmental approaches using the Phoenix WinNonlin 6.3 software program. Cmax, Tmax, T1/2, AUC(0-t), AUC(0-inf), MRT(0-t), MRT(0-inf), % F and graphs of plasma concentration versus time profile were generated.
# Several prodrugs including EFdA (1) as a control were subjected to a single dose rat PK studies via subcutaneous route of administration. All animals were injected with equivalent doses of 10 mg/kg and concentration of 4 mg/mL of EFdA as an aqueous suspension in 0.5% CMC-Na and 0.5% TWEEN-80.
# After optimization, SC rat PK studies were performed again with high equivalent dose of 100 mg/kg at equivalent concentration of 120 mg/mL for Compound 3, 116 mg/mL for Compound 5, and 319 mg/mL of EFdA, respectively.
# [3] = SC rhesus PK: EFdA plasma levels; conditions: rhesus macaque, single SC dose, 50 mg/kg EFdA equivalent
# Description: as §1, §2
# Animals were dosed within four hours of suspension preparation. […]
# Plasma concentration versus time data was analyzed by non-compartmental approaches using the Phoenix WinNonlin 6.3 software program. […]
# [4] = Optimization of surfactant concentration in Compound 5 suspension (syringeability, viscosity, flow, resuspension); format: physicochemical; design: key to Flow: + No Flow; ++ Less Flow; +++ Good Flow; ++++ Very Good Flow; key to Viscosity: ++++ Slightly Viscous; +++ Viscous; ++ Very Viscous; + Semisolid; key to Syringeability (26 G): ✓: Syringeable; conditions: 400 mg/gm Compound 5, after 10 days of storage
# Description: The concentration of surfactant was optimized with 0.3% and 0.5% of methyl cellulose in a formation containing 400 mg/gm of micronized Compound 5. Formulations were prepared with different concentrations of TWEEN-80 (0.1, 0.2 and 0.3%).
# [5] = Aqueous solubility (pH 7.4); format: physicochemical
# [6] = 0.3% Methyl Cellulose, 0.1% TWEEN-80
# [7] = 0.3% Methyl Cellulose, 0.2% TWEEN-80
# [8] = 0.3% Methyl Cellulose, 0.3% TWEEN-80
# [9] = 0.5% Methyl Cellulose, 0.1% TWEEN-80
# [10] = 0.5% Methyl Cellulose, 0.2% TWEEN-80
# [11] = 0.5% Methyl Cellulose, 0.3% TWEEN-80
# [12] = aqueous medium at pH 7.4, pH 7.4, aqueous buffer, read-out: Aqueous solubility (pH 7.4)
smiles,measurement,setting,value
"C#C[C@]1(COC(=O)C(C)C)O[C@@H](n2cnc3c(N)nc(F)nc32)C[C@@H]1OC(=O)C(C)C [Compound 2, (2R,3S,5R)-5-(6-amino-2-fluoro-9H-purin-9-yl)-2-ethynyl-2-((isobutyryloxy)methyl)tetrahydrofuran-3-yl isobutyrate]",crystallinity in suspension (XPRD),[1],retains good crystallinity in suspension
same,Cmax compared with EFdA,[2],much lower than for EFdA
same,duration of plasma levels of EFdA above lower limit of quantitation (LLOQ),[2],more than a week
"C#C[C@]1(COC(=O)C(CC)CC)O[C@@H](n2cnc3c(N)nc(F)nc32)C[C@@H]1OC(=O)C(CC)CC [Compound 3, (2R,3S,5R)-5-(6-amino-2-fluoro-9H-purin-9-yl)-2-(((2-ethylbutanoyl)oxy)methyl)-2-ethynyltetrahydrofuran-3-yl 2-ethylbutanoate]",half life and mean residence life compared with EFdA,[2],Enhanced half life and mean residence life
same,Cmax compared with EFdA,[2],much lower than for EFdA
same,duration of plasma levels of EFdA above lower limit of quantitation (LLOQ),[2],more than a week
"C#C[C@]1(COC(=O)Cc2ccccc2)O[C@@H](n2cnc3c(N)nc(F)nc32)C[C@@H]1OC(=O)Cc1ccccc1 [Compound 5, (2R,3S,5R)-5-(6-amino-2-fluoro-9H-purin-9-yl)-2-ethynyl-2-((2-phenylacetoxy)methyl)tetrahydrofuran-3-yl 2-phenylacetate]",duration of plasma levels of EFdA above LLOQ,[3],more than a month
same,half life and mean residence life compared with EFdA,[2],Enhanced half life and mean residence life
same,Cmax compared with EFdA,[2],much lower than for EFdA
same,duration of plasma levels of EFdA above lower limit of quantitation (LLOQ),[2],more than a week
same,Flow,[4]; [6],++++
same,Syringeability (26 G),[4]; [6],✓
same,Time Taken to Resuspend,[4]; [6],2.2 min
same,Viscosity,[4]; [6],++++
same,Flow,[4]; [7],++++
same,Syringeability (26 G),[4]; [7],✓
same,Time Taken to Resuspend,[4]; [7],2.5 min
same,Viscosity,[4]; [7],++++
same,Flow,[4]; [8],++++
same,Syringeability (26 G),[4]; [8],✓
same,Time Taken to Resuspend,[4]; [8],2.3 min
same,Viscosity,[4]; [8],++++
same,Flow,[4]; [9],++++
same,Syringeability (26 G),[4]; [9],✓
same,Time Taken to Resuspend,[4]; [9],2.5 min
same,Viscosity,[4]; [9],++++
same,Flow,[4]; [10],++++
same,Syringeability (26 G),[4]; [10],✓
same,Time Taken to Resuspend,[4]; [10],2.5 min
same,Viscosity,[4]; [10],++++
same,Flow,[4]; [11],++++
same,Syringeability (26 G),[4]; [11],✓
same,Time Taken to Resuspend,[4]; [11],3.0 min
same,Viscosity,[4]; [11],++++
"C#C[C@]1(COC(=O)c2ccccc2)O[C@@H](n2cnc3c(N)nc(F)nc32)C[C@@H]1OC(=O)c1ccccc1 [Compound 6, (2R,3S,5R)-5-(6-amino-2-fluoro-9H-purin-9-yl)-2-((benzoyloxy)methyl)-2-ethynyl tetrahydrofuran-3-yl benzoate]",crystallinity in suspension (XPRD),[1],retains good crystallinity in suspension
same,solubility,[5]; [12],< 2 µg/mL
"C#C[C@]1(CO)O[C@@H](n2cnc3c(N)nc(F)nc32)C[C@@H]1O [Compound 1, 4′-Ethynyl-2-fluoro-2′-deoxyadenosine, reference compound]",solubility,"[5]; aqueous medium at physiological pH, pH 7.4, aqueous buffer, read-out: aqueous solubility at physiological pH",877 µg/mL
"C#C[C@]1(COC(=O)C2CCCC2)O[C@@H](n2cnc3c(N)nc(F)nc32)C[C@@H]1OC(=O)C1CCCC1 [Compound 4, (2R,3S,5R)-5-(6-amino-2-fluoro-9H-purin-9-yl)-2-(((cyclopentanecarbonyl)oxy)methyl)-2-ethynyltetrahydrofuran-3-yl cyclopentanecarboxylate]",solubility,[5]; [12],< 1 µg/mL
